Like-named read-outs stand apart in the source and are kept apart here.
Legend:
[1] = In vitro stability in mouse liver microsomes; type: in vitro ADME
Description: Figure S1. Percent BAP or pro-hpAP remaining after incubation in mouse liver microsomes (+/-NADPH) (a), mouse plasma (b), or mouse liver homogenates (c). Data shown as bar graphs in Figure 4.

[2] = test system: E. coli; conditions: cited from earlier work
[3] = In vivo PK studies in CD-1 mice
Description: For pharmacokinetic analysis, both male (n = 2) and female (n = 2) CD1 mice were dosed with either BAP or pro-hpAP by intraperitoneal (IP) route or administration (100 mg/kg) and (30 mg/kg), respectively. Blood and tissue samples were collected at predetermined time points (0–6 h post-dose). Plasma was generated from blood by low-speed centrifugation (3,000 × g), and all samples were stored at −80°C until bioanalysis.
Non-compartmental-analysis module in WinNonlin was used to assess blood pharmacokinetic parameters including max concentrations (Cmax), time to Cmax (Tmax), area under the curve (AUC), area extrapolated to infinity (AUC0–∞), and terminal half-life (t1/2). In addition, the tissue penetration index was measured as the ratio of AUCtissue to AUCplasma.
To quantify BAP and pro-hpAP, methanol containing 0.5 µM losartan as an internal standard was added 5 µL/µL plasma or 5 µL/mg tissue in microcentrifuge tubes. Tissue was further homogenized using a Spex Geno/Grinder with stainless steel beads for 3 min at 1,500 RPM. Homogenates from untreated animals were spiked with the analytes from 100 to 0.01 nmol/g tissue by serial dilution to generate a standard curve. Plasma and tissue homogenates were then vortexed and centrifuged (16,000 × g for 5 min at 4°C) to precipitate proteins. Supernatants were transferred to a 96 well plate and 2 µL was injected on a Accela 1250 LC coupled to a Vantage triple quadrupole mass spectrometer (Thermo Fisher Scientific Inc., Waltham MA). Samples were separated on an Agilent EclipsePlus C18 RRHD (1.8 µm) 2.1 × 100 mm column with mobile phases consisting of water +0.1% formic acid (A), and acetonitrile + 0.1% formic acid (B). […] Samples were introduced to the source through heated ion spray with the capillary temperature setting at 350°C, spray voltage of 4 kV and S-Lens RF of 51. Nitrogen was used as the sheath and auxiliary gas with the settings of 50 and 1 arbitrary units, respectively. For BAP, the instrument was operated in negative ion mode scanning for transitions of 179.1 > 63.1, 79.1 (BAP) and 420.9 > 179.1, 127.0 (losartan) which were acquired with collision energies setting of 17; 55 and 25; 41 CE, respectively. For pro-hpAP, the instrument was operated in positive ion mode scanning for transitions of 346.2 to 86.1 and 143.2 (pro-hpAP) and 422.9 to 207.1 and 180.1 (losartan) which were acquired with collision energies setting of 29; 17 and 37; 22 CE, respectively. Peaks were quantified with Xcalibur software.

[4] = In vitro stability in mouse liver homogenate; type: in vitro ADME; conditions: mouse liver homogenate (10%, wt/vol), 10 µM
Description: In vitro stability studies were conducted using our previously published methods naive CD1 mouse plasma or liver homogenate. For liver homogenate stability study, washed mouse liver was diluted 10-fold in 0.1 M potassium phosphate buffer and homogenized using probe sonication. Crude homogenate was then aliquoted to 1 mL, and the homogenate was spiked with 10 µM compound. The plasma stability of the compounds was determined by spiking (10 µM) in 1 mL of plasma and incubating in an orbital shaker at 37°C. All the stability studies were conducted at predetermined times (0, 30, and 60 min), where 100 µL aliquots of the mixture in triplicate were removed and the reaction was quenched by the addition of three times the volume of ice-cold acetonitrile spiked with the internal standard (losartan: 0.5 µM). The samples were vortex-mixed for 30 s and centrifuged at 10,000g for 10 min at 4°C. An amount of 50 µL of the supernatant was diluted with 50 µL of water and transferred to a 250 µL polypropylene vial sealed with a Teflon cap. Compound disappearance was monitored over time using liquid chromatography and tandem mass spectrometry (LC–MS/MS). Paired t-tests were used to determine statistical significance between 0 and 60 min time points.

[5] = Bladder, single 100 mg/kg IP dose of BAP
[6] = Brain, single 100 mg/kg IP dose of BAP
[7] = Kidney, single 100 mg/kg IP dose of BAP
[8] = Plasma, single 100 mg/kg IP dose of BAP

For `CCCCOP(=O)(O)C(C)=O` [BAP, butyl acetylphosphonate], the “% remaining in liver microsomes” value ([1]; at 1 h) is given as 94%, the MICs ([2]; under nutrient limitation) is given as “low micromolar range” and the AUC(0-t) [3, 5] is given as 1990 ± 110 µM·h. The Cmax [3, 5] was 1840 ± 230 µM, the Tmax [3, 5] was 4.8 min and the AUC(0-t) [3, 6] was 12.5 ± 1.8 µM·h. The Cmax [3, 6] was 16.2 ± 2.6 µM, the AUC(0-t) [3, 7] was 136 ± 7 µM·h and the Cmax [3, 7] was 298 ± 37 µM. The Tmax [3, 7] was 4.8 min, the AUC(0-t) [3, 8] was 233 ± 27 µM·h and the Cmax [3, 8] was 650 ± 190 µM. The Tmax [3, 8] was 4.8 min, the AUC ([3]; bladder, BAP 100 mg/kg IP) was 1,990 ± 110 nmol h/g and the AUC ([3]; brain, BAP 100 mg/kg IP) was 12.5 ± 1.8 nmol·h/g. The AUC ([3]; kidney, BAP 100 mg/kg IP) was 136 ± 7 nmol·h/g, the AUC ([3]; plasma, BAP 100 mg/kg IP) was 233 ± 27 nmol·h/mL and the “% remaining in liver homogenate” value ([4]; at 1 h) was 22%.
In the case of `C#CCCOP(=O)(O)C(=C)NC(=O)C(CC(C)C)NC(=O)CN` (stereo not shown) [pro-hpAP], the remaining at 1 h [1] is listed as 90%, the MIC ([2]; standard nutrient limitation conditions) is listed as ~ 20 nM and the AUC ([3]; bladder, pro-hpAP 30 mg/kg IP, analyte = labelled substance (pro-hpAP or released hpAP)) is listed as 6.2 ± 1.3 nmol·h/g. It also gave a Cmax ([3]; both sexes, CD1, mouse, Bladder, single 30 mg/kg IP dose of pro-hpAP, analyte = labelled substance) of 24.3 ± 8.5 µM, an AUC(0-t) ([3]; both sexes, CD1, mouse, Bladder, single 30 mg/kg IP dose of pro-hpAP, analyte = labelled substance, read-out: AUC0-t) of 6.2 ± 1.3 µM·h and a Tmax ([3]; both sexes, CD1, mouse, Bladder, single 30 mg/kg IP dose of pro-hpAP, analyte = labelled substance, read-out: Tmax) of 4.8 min. For the same compound, the Cmax ([3]; both sexes, CD1, mouse, Brain, single 30 mg/kg IP dose of pro-hpAP, analyte = labelled substance) was 0.134 ± 0.036 µM, the AUC(0-t) ([3]; both sexes, CD1, mouse, Brain, single 30 mg/kg IP dose of pro-hpAP, analyte = labelled substance, read-out: AUC0-t) was 0.115 ± 0.014 µM·h and the Tmax ([3]; both sexes, CD1, mouse, Brain, single 30 mg/kg IP dose of pro-hpAP, analyte = labelled substance, read-out: Tmax) was 4.8 min. For the same compound, the Cmax ([3]; both sexes, CD1, mouse, Kidney, single 30 mg/kg IP dose of pro-hpAP, analyte = labelled substance) was 0.715 ± 0.09 µM, the AUC(0-t) ([3]; both sexes, CD1, mouse, Kidney, single 30 mg/kg IP dose of pro-hpAP, analyte = labelled substance, read-out: AUC0-t) was 0.516 ± 0.048 µM·h and the Tmax ([3]; both sexes, CD1, mouse, Kidney, single 30 mg/kg IP dose of pro-hpAP, analyte = labelled substance, read-out: Tmax) was 4.8 min. For the same compound, the Cmax ([3]; both sexes, CD1, mouse, Plasma, single 30 mg/kg IP dose of pro-hpAP, analyte = labelled substance (pro-hpAP or released hpAP)) was 20.2 ± 1.9 µM, the AUC(0-t) ([3]; both sexes, CD1, mouse, Plasma, single 30 mg/kg IP dose of pro-hpAP, analyte = labelled substance, read-out: AUC0-t) was 3.2 ± 0.21 µM·h and the Tmax ([3]; both sexes, CD1, mouse, Plasma, single 30 mg/kg IP dose of pro-hpAP, analyte = labelled substance, read-out: Tmax) was 4.8 min. For the same compound, the AUC ([3]; both sexes, CD1, mouse, plasma, pro-hpAP 30 mg/kg IP, analyte = labelled substance, read-out: AUC) was 3.2 ± 0.21 nmol·h/mL, the AUC ([3]; brain, pro-hpAP 30 mg/kg IP, analyte = labelled substance) was 0.115 ± 0.014 nmol·h/g and the AUC ([3]; kidney, pro-hpAP 30 mg/kg IP, analyte = labelled substance) was 0.516 ± 0.048 nmol·h/g. For the same compound, the “prodrug remaining in liver homogenate” value ([4]; 30 min incubation) was “no prodrug remaining”.

Source: paper PMC10986598, “Investigating inhibitors of 1-deoxy-D-xylulose 5-phosphate synthase in a mouse model of UTI” (Microbiology Spectrum, 2024)
